How the values were obtained:
[1] = target: Mu-type opioid receptor (Cavia porcellus, UniProt P97266); assay: Displacement of [3H]DAMGO from mu opioid receptor in guinea pig forebrain
[2] = Displacement of [3H]NTI from delta opioid receptor in guinea pig forebrain; design: species or system Cavia porcellus
[3] = target: Kappa-type opioid receptor (Cavia porcellus, UniProt P41144); assay: Displacement of [3H]U69,593 from kappa opioid receptor in guinea pig cerebellum; assay type: tissue-based
Kappa-type opioid receptor, sequence (P41144 whole entry): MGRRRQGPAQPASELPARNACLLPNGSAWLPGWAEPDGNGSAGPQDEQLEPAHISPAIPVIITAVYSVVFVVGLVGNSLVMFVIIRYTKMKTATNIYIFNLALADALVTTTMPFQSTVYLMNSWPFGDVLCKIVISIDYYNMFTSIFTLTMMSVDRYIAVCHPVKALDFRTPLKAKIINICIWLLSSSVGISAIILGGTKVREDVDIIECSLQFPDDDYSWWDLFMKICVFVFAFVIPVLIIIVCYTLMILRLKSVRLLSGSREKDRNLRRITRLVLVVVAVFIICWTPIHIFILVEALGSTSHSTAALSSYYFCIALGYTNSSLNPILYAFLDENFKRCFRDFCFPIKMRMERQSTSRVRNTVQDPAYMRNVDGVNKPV

Mu-type opioid receptor, sequence (P97266 whole entry): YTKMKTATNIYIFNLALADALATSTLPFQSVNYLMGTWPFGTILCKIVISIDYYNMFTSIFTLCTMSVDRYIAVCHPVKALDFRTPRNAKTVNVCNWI

## C=C[C@]12c3c4ccc(O)c3O[C@H]1C(=O)CC[C@@]2(O)[C@H](NCC1CC1)C4
[1]
  Ki: 8.6 nM
[2]
  Ki: 4.73 nM
[3]
  Ki: 193 nM

## C=C[C@]12c3c4ccc(O)c3O[C@H]1C(=O)CC[C@@]2(O)[C@H](N(C)CC1CC1)C4
[1]
  Ki: 26.4 nM
[2]
  Ki: 39.7 nM
[3]
  Ki: 200 nM

## CN(CC1CC1)C1Cc2ccc(O)c3c2[C@@]2(CCn4ccnn4)[C@@H](O3)C(=O)CC[C@@]12O (stereo partly specified)
[1]
  IC50: > 1000 nM
[2]
  IC50: > 1000 nM
[3]
  IC50: > 1000 nM

## CN(CC1CC1)[C@@H]1Cc2ccc(O)c3c2[C@@]2(CCO3)CC(=O)CC[C@@]12O
[1]
  IC50: > 1000 nM
[2]
  IC50: > 1000 nM
[3]
  IC50: > 1000 nM

## CN(CC1CC1)[C@@H]1Cc2ccc(O)c3c2[C@]24CCO[C@]12CCC(=O)[C@@H]4O3
[1]
  Ki: 24 nM
[2]
  Ki: 43.2 nM
[3]
  IC50: > 1000 nM

## CC[C@]12c3c4ccc(O)c3O[C@H]1C(=O)CC[C@@]2(O)[C@H](N(C)CC1CC1)C4
[1]
  IC50: > 1000 nM
[2]
  Ki: 77.6 nM
[3]
  IC50: > 1000 nM

## CC[C@]12c3c4ccc(O)c3O[C@H]1C(=O)CC[C@@]2(O)[C@H](NCC1CC1)C4
[1]
  Ki: 26.3 nM
[2]
  Ki: 24.1 nM
[3]
  Ki: 275 nM
